Experimental data reported in PMC6199744, “Development of Chemical Proteomics for the Folateome and Analysis of the Kinetoplastid Folateome” (ACS Infectious Diseases, 2018).
Where two headings read alike, the source gives them in different places.

What was measured:
Format in all cases: binding
[1] = target: T1, HeLa cell extract proteins (Homo sapiens, UniProt Q9NUI1)
T1 construct: endogenous in cells; host or cells: HeLa cell extract
T1 sequence (Q9NUI1 1-292): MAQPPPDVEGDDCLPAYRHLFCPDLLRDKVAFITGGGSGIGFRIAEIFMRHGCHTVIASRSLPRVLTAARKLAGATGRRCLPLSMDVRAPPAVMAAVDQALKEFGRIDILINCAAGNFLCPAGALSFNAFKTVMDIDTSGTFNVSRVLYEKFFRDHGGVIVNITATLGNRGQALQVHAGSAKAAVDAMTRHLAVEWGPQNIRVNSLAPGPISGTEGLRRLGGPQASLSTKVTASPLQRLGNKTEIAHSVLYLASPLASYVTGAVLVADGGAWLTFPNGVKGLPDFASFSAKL

[2] = target: T2, HeLa cell extract proteins (Homo sapiens, UniProt Q9BQA1)
T2 construct: endogenous in cells; host or cells: HeLa cell extract

[3] = target: T3, HeLa cell extract proteins (Homo sapiens, UniProt Q13011)
T3 construct: endogenous in cells; host or cells: HeLa cell extract
T3 sequence (Q13011 34-328): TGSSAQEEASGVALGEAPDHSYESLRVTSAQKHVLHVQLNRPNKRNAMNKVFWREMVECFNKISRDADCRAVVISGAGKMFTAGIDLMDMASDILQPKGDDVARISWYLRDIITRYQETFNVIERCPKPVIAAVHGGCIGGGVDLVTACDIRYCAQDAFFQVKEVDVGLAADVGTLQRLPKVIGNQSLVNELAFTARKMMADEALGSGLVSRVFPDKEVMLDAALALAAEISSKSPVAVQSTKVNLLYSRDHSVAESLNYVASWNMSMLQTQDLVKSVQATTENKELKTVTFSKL

[4] = target: T4, HeLa cell extract proteins (Homo sapiens, UniProt O95714)
T4 construct: endogenous in cells; host or cells: HeLa cell extract

[5] = target: T5, HeLa cell extract proteins (Homo sapiens, UniProt Q9UJP4)
T5 construct: endogenous in cells; host or cells: HeLa cell extract
T5 sequence (Q9UJP4 1-597): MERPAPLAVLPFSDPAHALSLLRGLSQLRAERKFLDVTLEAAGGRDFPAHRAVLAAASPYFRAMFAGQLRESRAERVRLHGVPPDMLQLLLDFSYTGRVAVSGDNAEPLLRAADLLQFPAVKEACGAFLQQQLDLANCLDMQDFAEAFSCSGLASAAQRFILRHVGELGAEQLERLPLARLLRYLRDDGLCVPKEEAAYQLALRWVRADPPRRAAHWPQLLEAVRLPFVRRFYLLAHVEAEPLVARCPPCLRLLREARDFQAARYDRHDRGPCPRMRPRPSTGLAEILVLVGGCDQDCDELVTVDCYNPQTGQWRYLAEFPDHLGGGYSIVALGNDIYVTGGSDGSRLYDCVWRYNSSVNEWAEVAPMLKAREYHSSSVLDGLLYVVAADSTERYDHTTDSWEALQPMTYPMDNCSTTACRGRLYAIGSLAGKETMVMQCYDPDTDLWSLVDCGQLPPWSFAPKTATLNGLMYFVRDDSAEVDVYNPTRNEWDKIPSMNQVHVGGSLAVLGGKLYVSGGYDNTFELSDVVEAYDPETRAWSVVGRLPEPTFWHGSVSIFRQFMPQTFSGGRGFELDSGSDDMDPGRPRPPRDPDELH

[6] = target: T6, HeLa cell extract proteins (Homo sapiens, UniProt Q6P3X3)
T6 construct: endogenous in cells; host or cells: HeLa cell extract

[7] = target: T7, HeLa cell extract proteins (Homo sapiens, UniProt Q13618)
T7 construct: endogenous in cells; host or cells: HeLa cell extract

[8] = target: T8, HeLa cell extract proteins (Homo sapiens, UniProt P52948)
T8 construct: endogenous in cells; host or cells: HeLa cell extract

[9] = target: T9, HeLa cell extract proteins (Homo sapiens, UniProt O15027)
T9 construct: endogenous in cells; host or cells: HeLa cell extract

[10] = target: T10, HeLa cell extract proteins (Homo sapiens, UniProt Q9Y573)
T10 construct: endogenous in cells; host or cells: HeLa cell extract
T10 sequence (Q9Y573 1-584): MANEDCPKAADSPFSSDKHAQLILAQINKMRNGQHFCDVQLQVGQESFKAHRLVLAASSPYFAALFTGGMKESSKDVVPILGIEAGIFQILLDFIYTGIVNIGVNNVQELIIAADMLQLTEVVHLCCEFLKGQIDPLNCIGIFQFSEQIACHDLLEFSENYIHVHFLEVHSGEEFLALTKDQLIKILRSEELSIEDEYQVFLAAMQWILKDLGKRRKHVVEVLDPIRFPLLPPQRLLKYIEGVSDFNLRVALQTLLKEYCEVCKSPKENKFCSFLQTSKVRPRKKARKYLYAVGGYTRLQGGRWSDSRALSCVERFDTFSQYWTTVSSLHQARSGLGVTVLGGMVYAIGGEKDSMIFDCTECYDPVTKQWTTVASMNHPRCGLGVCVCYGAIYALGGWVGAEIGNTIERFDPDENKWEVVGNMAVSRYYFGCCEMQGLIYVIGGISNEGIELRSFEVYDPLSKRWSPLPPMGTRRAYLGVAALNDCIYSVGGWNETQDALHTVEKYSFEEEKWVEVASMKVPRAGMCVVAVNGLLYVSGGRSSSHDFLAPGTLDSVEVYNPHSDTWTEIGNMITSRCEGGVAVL

[11] = HeLa, protein SEC16A (HY[…] LOC9919)
[12] = HeLa, protein IPP (ACTIN-BINDING PROTEIN IPP)

T8 sequence (P52948 whole entry): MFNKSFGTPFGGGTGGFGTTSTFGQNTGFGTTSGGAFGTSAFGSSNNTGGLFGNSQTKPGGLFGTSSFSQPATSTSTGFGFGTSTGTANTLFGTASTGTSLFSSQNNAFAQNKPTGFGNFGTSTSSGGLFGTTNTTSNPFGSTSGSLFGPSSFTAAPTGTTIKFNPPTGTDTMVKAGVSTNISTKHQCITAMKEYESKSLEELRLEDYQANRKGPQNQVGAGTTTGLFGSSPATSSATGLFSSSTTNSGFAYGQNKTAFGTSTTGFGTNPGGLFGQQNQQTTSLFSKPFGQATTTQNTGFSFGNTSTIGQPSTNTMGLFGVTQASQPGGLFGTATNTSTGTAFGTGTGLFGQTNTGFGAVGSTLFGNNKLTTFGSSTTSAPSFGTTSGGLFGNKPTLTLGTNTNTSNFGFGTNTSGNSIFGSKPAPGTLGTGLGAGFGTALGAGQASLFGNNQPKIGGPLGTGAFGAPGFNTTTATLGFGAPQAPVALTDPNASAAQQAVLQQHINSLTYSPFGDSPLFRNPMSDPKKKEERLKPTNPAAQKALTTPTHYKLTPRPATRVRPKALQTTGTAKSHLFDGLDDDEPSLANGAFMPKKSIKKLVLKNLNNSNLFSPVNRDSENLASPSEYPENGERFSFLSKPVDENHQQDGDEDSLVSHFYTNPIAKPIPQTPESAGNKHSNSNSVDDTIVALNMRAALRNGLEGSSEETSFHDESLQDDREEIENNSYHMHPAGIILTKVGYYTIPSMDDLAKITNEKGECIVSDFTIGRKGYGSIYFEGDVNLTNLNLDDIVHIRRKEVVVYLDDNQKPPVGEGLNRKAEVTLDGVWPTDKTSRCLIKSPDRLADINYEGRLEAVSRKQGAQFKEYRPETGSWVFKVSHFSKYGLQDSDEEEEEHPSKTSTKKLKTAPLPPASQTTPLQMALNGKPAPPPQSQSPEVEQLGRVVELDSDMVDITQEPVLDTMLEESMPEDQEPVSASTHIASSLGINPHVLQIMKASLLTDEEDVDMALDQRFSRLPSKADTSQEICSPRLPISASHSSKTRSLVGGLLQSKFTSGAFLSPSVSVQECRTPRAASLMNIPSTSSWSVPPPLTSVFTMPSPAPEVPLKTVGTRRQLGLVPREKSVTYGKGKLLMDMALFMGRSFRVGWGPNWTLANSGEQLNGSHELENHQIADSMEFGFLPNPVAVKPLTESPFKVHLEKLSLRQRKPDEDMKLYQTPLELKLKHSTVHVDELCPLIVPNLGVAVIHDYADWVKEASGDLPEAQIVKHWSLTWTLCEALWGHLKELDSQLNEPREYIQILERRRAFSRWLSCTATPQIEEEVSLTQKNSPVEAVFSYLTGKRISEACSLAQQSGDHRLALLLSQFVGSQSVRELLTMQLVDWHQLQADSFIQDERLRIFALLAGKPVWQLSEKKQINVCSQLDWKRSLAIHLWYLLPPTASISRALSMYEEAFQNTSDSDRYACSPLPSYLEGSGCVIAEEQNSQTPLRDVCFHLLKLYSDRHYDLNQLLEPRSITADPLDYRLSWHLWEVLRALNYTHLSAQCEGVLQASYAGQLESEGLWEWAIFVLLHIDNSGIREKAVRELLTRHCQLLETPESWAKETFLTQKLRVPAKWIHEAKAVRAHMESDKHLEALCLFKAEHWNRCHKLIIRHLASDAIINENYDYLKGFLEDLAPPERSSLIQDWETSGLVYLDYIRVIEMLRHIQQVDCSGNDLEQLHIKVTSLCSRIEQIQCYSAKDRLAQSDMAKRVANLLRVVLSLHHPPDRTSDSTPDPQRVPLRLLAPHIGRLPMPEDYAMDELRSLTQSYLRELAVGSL
T7 sequence (Q13618 whole entry): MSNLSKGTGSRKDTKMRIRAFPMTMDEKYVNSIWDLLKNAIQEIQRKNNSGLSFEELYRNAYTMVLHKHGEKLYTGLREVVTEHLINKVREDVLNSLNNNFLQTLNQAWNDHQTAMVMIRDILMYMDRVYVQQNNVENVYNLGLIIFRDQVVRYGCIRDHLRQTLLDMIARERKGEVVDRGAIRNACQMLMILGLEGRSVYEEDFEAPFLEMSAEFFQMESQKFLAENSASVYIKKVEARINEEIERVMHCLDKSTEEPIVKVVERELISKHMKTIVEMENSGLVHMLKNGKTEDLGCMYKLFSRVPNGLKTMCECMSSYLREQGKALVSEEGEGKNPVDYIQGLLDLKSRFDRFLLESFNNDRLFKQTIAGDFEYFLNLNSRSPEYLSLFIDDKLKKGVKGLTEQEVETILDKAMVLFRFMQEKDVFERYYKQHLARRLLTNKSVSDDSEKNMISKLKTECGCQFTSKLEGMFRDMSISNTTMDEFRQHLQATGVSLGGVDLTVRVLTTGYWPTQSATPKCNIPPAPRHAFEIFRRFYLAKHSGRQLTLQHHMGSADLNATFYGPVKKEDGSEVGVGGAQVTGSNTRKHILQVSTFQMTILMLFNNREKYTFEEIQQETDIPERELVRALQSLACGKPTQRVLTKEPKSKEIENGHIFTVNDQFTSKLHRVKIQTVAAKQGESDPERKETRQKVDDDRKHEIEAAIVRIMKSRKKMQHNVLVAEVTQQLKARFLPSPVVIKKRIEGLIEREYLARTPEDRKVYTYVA
T2 sequence (Q9BQA1 whole entry): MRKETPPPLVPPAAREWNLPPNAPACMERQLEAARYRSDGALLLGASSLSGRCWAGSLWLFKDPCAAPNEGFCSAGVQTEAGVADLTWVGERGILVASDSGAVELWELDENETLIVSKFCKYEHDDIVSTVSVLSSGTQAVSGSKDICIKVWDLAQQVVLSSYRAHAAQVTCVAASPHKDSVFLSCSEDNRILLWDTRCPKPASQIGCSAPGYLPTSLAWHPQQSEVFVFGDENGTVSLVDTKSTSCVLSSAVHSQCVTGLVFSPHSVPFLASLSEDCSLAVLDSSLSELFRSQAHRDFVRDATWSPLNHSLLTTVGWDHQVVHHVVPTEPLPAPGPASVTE

SMILES | fold changes relative to vehicle control ([1]; HeLa, protein DECR2) | fold changes relative to vehicle control ([2]; HeLa, protein WDR77) | fold changes relative to vehicle control ([3]; HeLa, protein ECH1) | fold changes relative to vehicle control ([4]; protein HERC2, HeLa) | fold changes relative to vehicle control ([5]; HeLa, protein KLHL21) | fold changes relative to vehicle control ([6]; protein TTC27, HeLa) | fold changes relative to vehicle control ([7]; HeLa, protein CUL3) | fold changes relative to vehicle control ([8]; HeLa, protein NUP98) | fold changes relative to vehicle control [10, 12] | fold changes relative to vehicle control ([2]; protein WDR77, HeLa) | fold changes relative to vehicle control ([6]; captured protein TTC27, HeLa) | fold changes relative to vehicle control ([7]; captured protein CUL3, HeLa) | fold changes relative to vehicle control ([8]; captured protein NUP98, HeLa) | fold changes relative to vehicle control ([9]; HeLa, protein SEC16A) | fold changes relative to vehicle control ([10]; protein IPP, HeLa) | further results
Nc1nc2c(c(=O)[nH]1)N(C=O)C(CNc1ccc(C(=O)N[C@@H](CCC(=O)O)C(=O)O)cc1)CN2 (stereo partly shown) [LEU, leucovorin] | 1.02 | 0.83 | 1.04 | 1.09 | 1.02 | 0.76 | 0.92 | 0.93 | 0.99 |  |  |  |  |  |  | fold changes relative to vehicle control [9, 11]: 1.25
Nc1nc2[nH]cc(CCc3ccc(C(=O)N[C@@H](CCC(=O)O)C(=O)O)cc3)c2c(=O)[nH]1 [PTX, pemetrexed] |  |  |  |  |  |  |  |  |  |  |  |  |  |  |  | fold changes relative to vehicle control [1]: 0.89; fold changes relative to vehicle control [2]: 0.81; fold changes relative to vehicle control [3]: 1.01; fold changes relative to vehicle control [4]: 1; fold changes relative to vehicle control [5]: 0.95; fold changes relative to vehicle control [6]: 0.74; fold changes relative to vehicle control [7]: 0.92; fold changes relative to vehicle control [8]: 1; fold changes relative to vehicle control [9]: 1.17; fold changes relative to vehicle control [10]: 0.92
CCCCCCOc1ccc(Cc2cnc(N)nc2N)cc1 [compound 1] | 1 |  | 0.95 | 1 | 1.06 |  |  |  |  | 1.12 | 0.94 | 1.01 | 1.05 | 1 | 1.03 | 
CCCCCCOc1cccc(Cc2cnc(N)nc2N)c1 [compound 2] | 1.05 |  | 0.91 | 0.83 | 1.01 |  |  |  |  | 1.33 | 0.92 | 1.17 | 1.11 | 0.97 | 1.05 | 
Nc1nc2cccc(-c3ccccc3)c2n1Cc1ccc(Cl)c(Cl)c1 [compound 3] | 0.99 |  | 1 | 1.08 | 1.04 |  |  |  |  | 1 | 0.81 | 0.93 | 1.06 | 1.19 | 0.93 | 
NCCOCCOCC(=O)Nc1nc2ncc(CNc3ccc(C(=O)NC(CCC(=O)O)C(=O)O)cc3)nc2c(=O)[nH]1 (stereo not shown) [compound 6] | 0.94 | 1.03 | 0.96 | 1.07 | 1 | 0.8 | 0.97 | 1.21 | 0.89 |  |  |  |  |  |  | fold changes relative to vehicle control [9, 11]: 1.13
NCCCNc1ccc(C(=O)NC(CCC(=O)O)C(=O)O)cc1 (stereo not shown) [compound 7] | 0.93 | 0.96 | 0.99 | 1.09 | 0.97 | 0.82 | 0.91 | 1.05 | 0.9 |  |  |  |  |  |  | fold changes relative to vehicle control ([9]; HeLa, protein SEC16A (HYPOTHETICAL PROTEIN LOC9919)): 1.3
